# In ChEMBL document CHEMBL1255394, “Antimicrobial susceptibilities of multidrug-resistant Campylobacter jejuni and C. coli strains: in vitro activities of 20 antimicrobial agents” (2010):
# Legend:
# Type in all cases: functional
# [1] = test system: Campylobacter sp.; assay: Antibacterial activity against Campylobacter sp. assessed as resistance breakpoint by CLSI method
# [2] = test system: Campylobacter sp.; assay: Antibacterial activity against erythromycin susceptible Campylobacter sp. by agar plate dilution method
# [3] = test system: Campylobacter coli; assay: Antibacterial activity against Campylobacter coli assessed as resistant isolates by disk diffusion method
# [4] = test system: Campylobacter jejuni; assay: Antibacterial activity against Campylobacter jejuni assessed as resistant isolates by disk diffusion method
# [5] = test system: Campylobacter sp.; assay: Antibacterial activity against erythromycin resistant Campylobacter sp. by agar plate dilution method
# [6] = test system: Campylobacter sp.; assay: Antibacterial activity against erythromycin resistant Campylobacter sp. assessed as resistance breakpoint by CLSI method
# [7] = test system: Campylobacter sp.; assay: Antibacterial activity against erythromycin susceptible Campylobacter sp. assessed as resistance breakpoint by CLSI method
# [8] = test system: Campylobacter sp.; assay: Antibacterial activity against erythromycin resistant Campylobacter sp. after 48 hrs by Etest method
# [9] = test system: Campylobacter sp.; assay: Antibacterial activity against Campylobacter sp. assessed as resistance breakpoint by EUCAST method
# [10] = test system: Campylobacter sp.; assay: Antibacterial activity against erythromycin susceptible Campylobacter sp. after 48 hrs by Etest method
# [11] = test system: Campylobacter sp.; assay: Antimicrobial activity against erythromycin susceptible Campylobacter sp. assessed as clear zone of inhibition by disk diffusion method
# [12] = test system: Campylobacter sp.; assay: Antimicrobial activity against erythromycin resistant Campylobacter sp. assessed as clear zone of inhibition by disk diffusion method
Molecule,Activity [1] [µg/mL],MIC50 [2] [µg/mL],MIC90 [2] [µg/mL],Activity [3] [%],Activity [4] [%],MIC50 [5] [µg/mL],MIC90 [5] [µg/mL],Activity [6] [%],Activity [7] [%],MIC50 [8] [µg/mL],MIC90 [8] [µg/mL],Activity [9] [µg/mL],MIC50 [10] [µg/mL],MIC90 [10] [µg/mL],inhibition zone (IZ) [11] [mm],inhibition zone (IZ) [12]
CN(C)[C@@H]1C(O)=C(C(N)=O)C(=O)[C@@]2(O)C(O)=C3C(=O)c4c(O)cccc4[C@@](C)(O)[C@H]3C[C@@H]12 [TETRACYCLINE],16,2,8,66.7,28.1,128,> 128,73.7,26.9,,,,,,,
O=C(N[C@H](CO)[C@H](O)c1ccc([N+](=O)[O-])cc1)C(Cl)Cl [CHLORAMPHENICOL],32,0.125,8,0,0.5,4,16,0,0.5,,,,,,,
O=C(O)c1cn(C2CC2)c2cc(N3CCNCC3)c(F)cc2c1=O [CIPROFLOXACIN],,0.5,1,,42.4,16,> 32,,,,,,,,,
CCC[C@@H]1C[C@@H](C(=O)N[C@@H]([C@H]2O[C@H](SC)[C@H](O)[C@@H](O)[C@H]2O)[C@H](C)Cl)N(C)C1 [CLINDAMYCIN],8,2,4,50,5,64,64,89.5,1.4,,,,,,,
COc1c(N2C[C@@H]3CCCN[C@@H]3C2)c(F)cc2c(=O)c(C(=O)O)cn(C3CC3)c12 [MOXIFLOXACIN],,≤ 0.03,0.125,,,2,16,,,,,,,,,
CN(C)c1cc(NC(=O)CNC(C)(C)C)c(O)c2c1C[C@H]1C[C@H]3[C@H](N(C)C)C(O)=C(C(N)=O)C(=O)[C@@]3(O)C(O)=C1C2=O [TIGECYCLINE],0.5,,,0,0,,,0,0,0.008,0.023,>0.5,0.008,0.032,,
CC1COc2c(N3CCN(C)CC3)c(F)cc3c(=O)c(C(=O)O)cn1c23 (centres undefined) [OFLOXACIN],8,0.25,32,83.3,40.9,16,64,84.2,40.6,,,,,,,
CC[C@H]1OC(=O)[C@H](C)C(=O)[C@H](C)[C@@H](O[C@@H]2O[C@H](C)C[C@H](N(C)C)[C@H]2O)[C@](C)(OC)C[C@@H](C)C(=O)[C@H](C)[C@H]2N(CCCCn3cnc(-c4cccnc4)c3)C(=O)O[C@]12C [TELITHROMYCIN],,0.064,0.25,,,32,> 128,,,,,,,,,
N[C@@H]1CN(c2c(F)cc3c(=O)c(C(=O)O)cn([C@@H]4C[C@@H]4F)c3c2Cl)CC12CC2 [SITAFLOXACIN ANHYDROUS],,0.5,1,,,0.125,0.5,,,,,,,,,
CC1(C)S[C@@H]2[C@H](NC(=O)[C@H](N)c3ccccc3)C(=O)N2[C@H]1C(=O)O [AMPICILLIN],32,0.5,32,22.2,18.2,8,128,36.8,16.6,,,,,,,
CC[C@H]1OC(=O)[C@H](C)[C@@H](O[C@H]2C[C@@](C)(OC)[C@@H](O)[C@H](C)O2)[C@H](C)[C@@H](O[C@@H]2O[C@H](C)C[C@H](N(C)C)[C@H]2O)[C@](C)(O)C[C@@H](C)CN(C)[C@H](C)[C@@H](O)[C@]1(C)O [AZITHROMYCIN],4,0.25,0.5,38.9,5,> 128,> 128,89.5,0.5,,,,,,,
CCn1cc(C(=O)O)c(=O)c2cc(F)c(N3CCNCC3)cc21 [NORFLOXACIN],16,8,256,83.3,40.9,64,> 64,94.7,39.6,,,,,,,
CCn1cc(C(=O)O)c(=O)c2ccc(C)nc21 [NALIDIXIC ACID],32,2,8,83.3,41.4,128,128,94.7,40.1,,,,,,,
CC[C@H]1OC(=O)[C@H](C)[C@@H](O[C@H]2C[C@@](C)(OC)[C@@H](O)[C@H](C)O2)[C@H](C)[C@@H](O[C@@H]2O[C@H](C)C[C@H](N(C)C)[C@H]2O)[C@](C)(O)C[C@@H](C)C(=O)[C@H](C)[C@@H](O)[C@]1(C)O [ERYTHROMYCIN],16,2,4,50,4.5,> 128,> 128,100,0,,,,,,>23,<=23 mm
C[C@H]1COc2c(N3CCN(C)CC3)c(F)cc3c(=O)c(C(=O)O)cn1c23.C[C@H]1COc2c(N3CCN(C)CC3)c(F)cc3c(=O)c(C(=O)O)cn1c23.O [LEVOFLOXACIN],8,1,> 64,72.2,34.5,8,,78.9,33.6,,,,,,,
C[C@@H](O)[C@H]1C(=O)N2C(C(=O)O)=C(SCCNC=N)C[C@H]12 [IMIPENEM ANHYDROUS],16,0.016,0.25,0,0,0.25,0.5,0,0,,,,,,,
CC[C@H]1OC(=O)[C@H](C)[C@@H](O[C@H]2C[C@@](C)(OC)[C@@H](O)[C@H](C)O2)[C@H](C)[C@@H](O[C@@H]2O[C@H](C)C[C@H](N(C)C)[C@H]2O)[C@](C)(OC)C[C@@H](C)C(=O)[C@H](C)[C@@H](O)[C@]1(C)O [CLARITHROMYCIN],,0.25,128,,,> 128,> 128,,,,,,,,,
GENTAMICIN,16,4,64,0,0.9,0.5,0.5,0,0.9,,,,,,,
C[C@@H](O)[C@H]1C(=O)N2C(C(=O)O)=C(S[C@@H]3CN[C@H](C(=O)N(C)C)C3)[C@H](C)[C@H]12 [MEROPENEM],16,4,64,0,0,≤ 0.03,0.25,0,0,,,,,,,
